Holding throughout (type): biochemical
One assay has as its target ROCK 2 (Homo sapiens, UniProt O75116). The experiment in a line: Kinase screen: ROCK-II (ROKa) assay. The procedure:
(§1) Generally, the same procedure was used for all assays. Since the total assay volume was 25.5 microliters, 0.5 microliters of inhibitors at 51× assay concentration were added to the plates before any other addition.
(§2) The basic procedure was to add 0.5 microliters inhibitor/control in DMSO to plate. Fifteen microliters of enzyme/substrate/buffer mix were added and incubated for 5 min. Ten microliters MgATP at the relevant concentration were added and incubated for 30 min. The assay was stopped by adding 5 microliters of 3% orthophosphoric acid. The assay was transferred to a p81 filter plate and read in a scintillation counter of 30 sec/well. Note that this assay procedure was not followed for MKK1, which instead involved a two-step assay, and PKC alpha, which required the addition of lipid vesicles.
ROCK-II (ROKa) assay: ROCK-II (ROKa) (5-20 mU diluted in 50 mM Tris pH 7.5, 0.1 mM EGTA, 0.1% b-mercaptoethanol, 1 mg/ml BSA) was assayed against Long S6 substrate peptide ([…]) (SEQ ID NO: 10) in a final volume of 25.5 μl containing 50 mM Tris pH 7.5, 0.1 mM EGTA, 30 μM Long S6 substrate peptide, 10 mM magnesium acetate and 0.02 mM [33P-g-ATP] (50-1000 cpm/pmole) and incubated for 30 min at room temperature. Assays were stopped by addition of 5 μl of 0.5 M (3%) orthophosphoric acid and then harvested onto P81 Unifilter plates with a wash buffer of 50 mM orthophosphoric acid.

Another assay has as its target SmMLCK (Homo sapiens, UniProt Q15746). As to the kind of experiment: Kinase screen: smMLCK assay. The procedure: as §1, §2
(500-1000 cpm/pmole) and incubated for 30 mins at room temperature. Assays were stopped by addition of 5 μl of 0.5M (3%) orthophosphoric acid. Assays were harvested onto P81 Unifilter plates using a wash buffer of 50 mM orthophosphoric acid.

A further assay deals with MNK2 (Homo sapiens, UniProt Q9HBH9). As to the kind of experiment: Kinase screen: MNK2 alpha assay. The procedure: as §1, §2
MNK2 alpha assay: 5-20 mU of MNK2 (diluted in 50 mM Tris (pH 7.5), 0.1 mM EGTA, 1 mg/ml BSA, 0.1%, b-Mercaptoethanol) was assayed against substrate peptide (eIF4E) in a final volume of 25.5 μl containing 50 mM Tris (pH 7.5), 0.1 mM EGTA, 0.1%, b-Mercaptoethanol, 0.5 mg/ml substrate peptide, 10 mM magnesium acetate and 0.05 mM [33P-g-ATP](500-1000 cpm/pmole) and incubated for 30 mins at room temperature. Assays were stopped by addition of 5 μl of 0.5M (3%) orthophosphoric acid. Assays were harvested onto P81 Unifilter plates using a wash buffer of 50 mM orthophosphoric acid.

The next assay has as its target RSK2 (Homo sapiens, UniProt P51812). The experiment in a line: Kinase screen: MAPKAP-K1b/RSK2 assay. The procedure:
as §1, §2
MAPKAP-K1b/RSK2 assay: MAPKAP-K1b (5-20 mU diluted in 20 mM MOPS pH 7.5, 1 mM EDTA, 0.01% Brij35, 5% glycerol, 0.1% b-mercaptoethanol, 1 mg/ml BSA) was assayed against substrate peptide ([…]) (SEQ ID NO: 3) in a final volume of […] containing 50 mM Na-b-glycerophosphate (pH 7.5), 0.5 mM EDTA, 30 μM substrate peptide, 10 mM magnesium acetate and 0.05 mM [33P-g-ATP] (50-1000 cpm/pmole) and incubated for 30 min at room temperature. Assays were stopped by addition of 5 μl of 0.5 M (3%) orthophosphoric acid and then harvested onto P81 Unifilter plates with a wash buffer of 50 mM orthophosphoric acid.

For a further assay, the target named is NEK6 (Homo sapiens, UniProt Q9HC98). The experiment in a line: Kinase screen: NEK6 assay. The procedure: as §1, §2
(500-1000 cpm/pmole) and incubated for 30 min at room temperature. Assays were stopped by addition of 5 μl of 0.5 M (3%) orthophosphoric acid and then harvested onto P81 Unifilter plates with a wash buffer of 50 mM orthophosphoric acid.

In a further assay the target is FGF-R1 (Homo sapiens, UniProt P11362). As to the kind of experiment: Kinase screen: FGF-R1 assay. To be noted: 10 micromolar compound; for remaining activity at 10 µM: read-out: mean activity remaining (as a percentage of the original activity), FGF-R1. The procedure: as §1, §2
FGF-R1 assay: FGF-R1 (5-20 mU diluted in 50 mM Tris pH 7.5, 0.1 mM EGTA, 1 mg/ml BSA) was assayed against a substrate peptide (Poly Glut Tyr) in a final volume of 25.5 μl containing 50 mM Tris pH 7.5, 1 mg/ml substrate peptide, 10 mM magnesium acetate and 0.02 mM [33P-g-ATP] (50-1000 cpm/pmole) and incubated for 30 min at room temperature. Assays were stopped by addition of 5 μl of 0.5 M (3%) orthophosphoric acid and then harvested onto P81 Unifilter plates with a wash buffer of 50 mM orthophosphoric acid.

For another assay, the target named is MAPKAP-K2 (Homo sapiens, UniProt P49137). As to the kind of experiment: Kinase screen: MAPKAP-K2 assay. The procedure: as §1, §2
MAPKAP-K2 assay: MAPKAP-K2 (5-20 mU diluted in 20 mM MOPS pH 7.5, 1 mM EDTA, 0.01% Brij35, 5% glycerol, 0.1% b-mercaptoethanol, 1 mg/ml BSA) was assayed against […] (SEQ ID NO: 3) in a final volume of […] containing 50 mM Na-b-glycerophosphate pH 7.5, 0.5 mM EDTA, 30 μM substrate peptide, 10 mM magnesium acetate and 0.02 mM [33P-g-ATP] (50-1000 cpm/pmole) and incubated for 30 min at room temperature. Assays were stopped by addition of 5 μl of 0.5 M (3%) orthophosphoric acid and then harvested onto P81 Unifilter plates with a wash buffer of 50 mM orthophosphoric acid.

For another assay, the target named is CSK (Homo sapiens, UniProt P41240). As to the kind of experiment: Kinase screen: CSK assay. The procedure: as §1, §2
(500-1000 cpm/pmole) and incubated for 30 min at room temperature Assays were stopped by addition of 5 μl of 0.5 M (3%) orthophosphoric acid and then harvested onto P81 Unifilter plates with a wash buffer of 50 mM orthophosphoric acid.

Setting [1] is: 10 micromolar compound, read-out: mean activity remaining (as a percentage of the original activity), ROCK 2.
[2] abbreviates: 10 micromolar compound, read-out: mean activity remaining (as a percentage of the original activity), SmMLCK.
The mark [3] stands for this setting: 10 micromolar compound, read-out: mean activity remaining (as a percentage of the original activity), MNK2.
[4] abbreviates: 10 micromolar compound, read-out: mean activity remaining (as a percentage of the original activity), RSK2.
Where [5] appears, read: 10 micromolar compound, read-out: mean activity remaining (as a percentage of the original activity), NEK 6.
The mark [6] stands for this setting: 10 micromolar compound, read-out: mean activity remaining (as a percentage of the original activity), MAPKAP-K2.
The mark [7] stands for this setting: 10 micromolar compound, read-out: mean activity remaining (as a percentage of the original activity), CSK.

Read-outs that look alike come from different tables or passages of the source.

Sequence of RSK2 (P51812 whole entry, species assumed): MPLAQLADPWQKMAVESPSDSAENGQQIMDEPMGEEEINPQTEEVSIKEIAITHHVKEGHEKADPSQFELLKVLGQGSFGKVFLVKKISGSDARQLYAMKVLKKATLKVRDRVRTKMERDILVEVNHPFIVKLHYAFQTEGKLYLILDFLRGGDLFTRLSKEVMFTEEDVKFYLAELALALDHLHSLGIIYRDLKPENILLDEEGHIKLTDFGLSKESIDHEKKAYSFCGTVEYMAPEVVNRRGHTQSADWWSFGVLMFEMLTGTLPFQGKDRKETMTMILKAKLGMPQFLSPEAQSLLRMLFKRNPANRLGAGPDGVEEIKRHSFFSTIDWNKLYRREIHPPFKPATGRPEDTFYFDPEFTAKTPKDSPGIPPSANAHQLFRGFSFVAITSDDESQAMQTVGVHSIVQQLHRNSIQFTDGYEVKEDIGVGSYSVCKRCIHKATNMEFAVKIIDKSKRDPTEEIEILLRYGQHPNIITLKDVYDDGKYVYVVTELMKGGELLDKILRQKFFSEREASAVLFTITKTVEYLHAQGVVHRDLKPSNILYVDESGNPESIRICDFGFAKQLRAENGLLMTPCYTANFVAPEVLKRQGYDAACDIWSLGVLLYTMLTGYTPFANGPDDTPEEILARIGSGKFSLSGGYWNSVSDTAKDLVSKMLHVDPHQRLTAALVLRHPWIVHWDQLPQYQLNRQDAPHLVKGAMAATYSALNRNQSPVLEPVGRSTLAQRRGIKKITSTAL
Sequence of FGF-R1 (P11362 22-822, species assumed): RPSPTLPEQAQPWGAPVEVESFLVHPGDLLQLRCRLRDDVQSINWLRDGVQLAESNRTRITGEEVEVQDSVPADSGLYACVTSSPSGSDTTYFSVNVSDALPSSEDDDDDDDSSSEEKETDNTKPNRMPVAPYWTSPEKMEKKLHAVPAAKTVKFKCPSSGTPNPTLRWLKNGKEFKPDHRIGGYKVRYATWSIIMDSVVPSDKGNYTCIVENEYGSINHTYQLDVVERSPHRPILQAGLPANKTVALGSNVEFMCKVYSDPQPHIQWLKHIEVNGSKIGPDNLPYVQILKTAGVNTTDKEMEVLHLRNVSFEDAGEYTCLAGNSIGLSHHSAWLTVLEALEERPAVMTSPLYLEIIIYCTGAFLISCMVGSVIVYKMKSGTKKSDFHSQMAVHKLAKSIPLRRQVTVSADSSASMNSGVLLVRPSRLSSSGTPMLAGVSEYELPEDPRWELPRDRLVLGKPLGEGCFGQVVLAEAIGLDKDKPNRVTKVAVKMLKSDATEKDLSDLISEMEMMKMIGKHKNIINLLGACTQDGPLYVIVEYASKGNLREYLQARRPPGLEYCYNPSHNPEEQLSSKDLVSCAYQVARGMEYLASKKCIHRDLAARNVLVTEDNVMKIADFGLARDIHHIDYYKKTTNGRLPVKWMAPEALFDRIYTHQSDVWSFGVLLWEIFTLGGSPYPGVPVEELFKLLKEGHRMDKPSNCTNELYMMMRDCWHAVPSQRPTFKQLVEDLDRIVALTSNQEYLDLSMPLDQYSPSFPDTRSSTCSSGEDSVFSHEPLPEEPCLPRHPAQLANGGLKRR
Sequence of SmMLCK (Q15746 923-1914): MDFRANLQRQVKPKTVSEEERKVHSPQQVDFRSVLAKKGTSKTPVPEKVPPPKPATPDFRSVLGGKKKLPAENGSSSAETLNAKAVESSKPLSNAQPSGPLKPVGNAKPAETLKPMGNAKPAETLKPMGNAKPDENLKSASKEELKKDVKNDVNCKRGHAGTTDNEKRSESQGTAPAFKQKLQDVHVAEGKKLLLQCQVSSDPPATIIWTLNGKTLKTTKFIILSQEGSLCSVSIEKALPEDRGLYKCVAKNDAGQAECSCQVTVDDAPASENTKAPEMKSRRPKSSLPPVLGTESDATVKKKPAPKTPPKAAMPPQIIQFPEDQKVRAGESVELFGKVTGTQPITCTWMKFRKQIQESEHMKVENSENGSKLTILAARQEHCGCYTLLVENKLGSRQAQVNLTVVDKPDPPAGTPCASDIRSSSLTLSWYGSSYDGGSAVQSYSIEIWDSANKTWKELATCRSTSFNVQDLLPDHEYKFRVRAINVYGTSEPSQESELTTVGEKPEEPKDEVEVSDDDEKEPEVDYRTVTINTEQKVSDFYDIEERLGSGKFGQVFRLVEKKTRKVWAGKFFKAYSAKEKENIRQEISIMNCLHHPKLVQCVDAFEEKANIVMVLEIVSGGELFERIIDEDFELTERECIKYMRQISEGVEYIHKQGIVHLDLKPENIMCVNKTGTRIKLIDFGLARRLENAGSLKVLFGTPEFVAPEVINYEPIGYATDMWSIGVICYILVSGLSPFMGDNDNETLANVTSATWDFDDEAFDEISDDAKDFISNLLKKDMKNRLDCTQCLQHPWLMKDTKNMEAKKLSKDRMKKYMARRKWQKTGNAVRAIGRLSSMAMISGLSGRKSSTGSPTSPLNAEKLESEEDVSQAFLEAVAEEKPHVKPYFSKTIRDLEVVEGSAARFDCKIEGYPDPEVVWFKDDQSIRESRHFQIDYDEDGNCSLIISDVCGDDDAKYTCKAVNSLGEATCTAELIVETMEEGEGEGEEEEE
Sequence of NEK6 (Q9HC98 whole entry, species assumed): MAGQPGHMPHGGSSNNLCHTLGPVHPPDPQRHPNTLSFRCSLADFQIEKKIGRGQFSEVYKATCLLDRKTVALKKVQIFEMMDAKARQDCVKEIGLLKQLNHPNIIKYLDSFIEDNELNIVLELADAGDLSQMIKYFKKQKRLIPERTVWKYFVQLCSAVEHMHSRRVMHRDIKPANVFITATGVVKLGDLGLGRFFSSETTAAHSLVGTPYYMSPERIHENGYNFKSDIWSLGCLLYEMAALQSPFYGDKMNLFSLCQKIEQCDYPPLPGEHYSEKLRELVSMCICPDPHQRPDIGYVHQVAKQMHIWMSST
Sequence of ROCK 2 (O75116 whole entry, species assumed): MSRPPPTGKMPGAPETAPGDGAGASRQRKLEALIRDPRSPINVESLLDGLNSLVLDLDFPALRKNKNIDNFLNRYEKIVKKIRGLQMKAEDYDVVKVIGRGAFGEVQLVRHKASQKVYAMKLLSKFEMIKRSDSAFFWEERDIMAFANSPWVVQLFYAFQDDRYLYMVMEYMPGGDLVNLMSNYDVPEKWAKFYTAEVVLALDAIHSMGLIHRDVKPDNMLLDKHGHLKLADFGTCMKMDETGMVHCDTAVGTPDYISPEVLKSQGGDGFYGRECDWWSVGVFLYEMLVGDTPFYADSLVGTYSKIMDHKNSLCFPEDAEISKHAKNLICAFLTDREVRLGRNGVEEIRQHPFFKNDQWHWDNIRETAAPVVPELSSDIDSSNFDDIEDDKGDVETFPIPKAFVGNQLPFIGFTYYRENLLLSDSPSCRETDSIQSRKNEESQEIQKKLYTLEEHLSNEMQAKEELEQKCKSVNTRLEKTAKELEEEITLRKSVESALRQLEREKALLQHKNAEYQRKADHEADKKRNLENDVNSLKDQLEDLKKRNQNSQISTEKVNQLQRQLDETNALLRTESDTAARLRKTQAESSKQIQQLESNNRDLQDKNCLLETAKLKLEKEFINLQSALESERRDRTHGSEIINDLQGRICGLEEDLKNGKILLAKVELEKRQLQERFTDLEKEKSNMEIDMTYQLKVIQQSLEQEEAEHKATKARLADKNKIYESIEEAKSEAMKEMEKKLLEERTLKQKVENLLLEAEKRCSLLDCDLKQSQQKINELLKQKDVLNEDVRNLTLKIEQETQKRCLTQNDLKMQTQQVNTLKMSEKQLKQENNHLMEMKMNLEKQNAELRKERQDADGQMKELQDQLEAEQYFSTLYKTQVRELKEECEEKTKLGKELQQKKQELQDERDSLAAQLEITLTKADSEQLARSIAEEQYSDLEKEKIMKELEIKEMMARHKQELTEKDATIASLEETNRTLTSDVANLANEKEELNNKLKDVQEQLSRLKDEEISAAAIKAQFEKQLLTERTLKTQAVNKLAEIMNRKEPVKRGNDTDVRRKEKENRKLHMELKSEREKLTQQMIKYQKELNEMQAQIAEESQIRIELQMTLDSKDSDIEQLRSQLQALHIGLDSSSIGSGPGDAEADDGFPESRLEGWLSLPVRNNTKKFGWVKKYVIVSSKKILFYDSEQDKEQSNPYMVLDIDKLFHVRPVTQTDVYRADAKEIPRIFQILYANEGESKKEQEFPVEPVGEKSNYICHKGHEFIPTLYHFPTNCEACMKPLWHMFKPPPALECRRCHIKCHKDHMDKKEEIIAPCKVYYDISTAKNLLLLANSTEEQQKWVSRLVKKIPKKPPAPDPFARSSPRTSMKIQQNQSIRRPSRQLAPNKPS
Sequence of MNK2 (Q9HBH9 whole entry, species assumed): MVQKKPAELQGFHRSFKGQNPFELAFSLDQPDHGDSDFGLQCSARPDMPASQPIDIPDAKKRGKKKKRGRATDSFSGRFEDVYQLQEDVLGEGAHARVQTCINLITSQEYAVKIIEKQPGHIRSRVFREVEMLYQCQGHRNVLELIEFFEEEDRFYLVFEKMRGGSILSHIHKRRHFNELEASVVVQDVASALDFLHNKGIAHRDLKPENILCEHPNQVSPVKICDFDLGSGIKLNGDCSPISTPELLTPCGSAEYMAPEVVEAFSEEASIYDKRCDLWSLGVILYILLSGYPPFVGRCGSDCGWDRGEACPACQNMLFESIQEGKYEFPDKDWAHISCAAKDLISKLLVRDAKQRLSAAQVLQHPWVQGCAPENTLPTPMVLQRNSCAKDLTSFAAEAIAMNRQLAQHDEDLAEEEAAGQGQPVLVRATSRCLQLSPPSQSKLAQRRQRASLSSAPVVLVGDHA

Regarding `CC(C)c1cnn2c(NCc3ccccc3F)cc(NCCCCCN)nc12` [ICEC-0232], the “mean activity remaining (as a percentage of the original activity), ROCK 2” value at ROCK 2 (10 micromolar compound) turned out to be 86%. In addition, the “mean activity remaining (as a percentage of the original activity), SmMLCK” value at SmMLCK (10 micromolar compound) stood at 38%. Also, the “mean activity remaining (as a percentage of the original activity), MNK2” value at MNK2 (10 micromolar compound) stood at 88%. Moreover, at RSK2 (10 micromolar compound), the “mean activity remaining (as a percentage of the original activity), RSK2” value came out at 19%. For the same molecule, the “mean activity remaining (as a percentage of the original activity), NEK 6” value at NEK6 (10 micromolar compound) turned out to be 74%. Further, at FGF-R1, the “mean activity remaining (as a percentage of the original activity), FGF-R1” value worked out at 82%. In addition, the “mean activity remaining (as a percentage of the original activity), MAPKAP-K2” value at MAPKAP-K2 (10 micromolar compound) amounted to 88%. In addition, the “mean activity remaining (as a percentage of the original activity), CSK” value at CSK (10 micromolar compound) turned out to be 78%.

`CC[C@H](CO)Nc1cc(NCc2ccccc2)n2ncc(C(C)C)c2n1` [ICEC0067]: the remaining activity at 10 µM on ROCK 2 (setting [1]) was 85%; on SmMLCK (setting [2]), 81%; at MNK2 (setting [3]) it was 84%; on RSK2 (setting [4]) it was 76%; at NEK6 (setting [5]) it was 101%; on FGF-R1, 78%. The remaining activity at 10 µM on MAPKAP-K2 (setting [6]) stood at 110%; on CSK (setting [7]) it was 77%.

For the molecule `CC(C)c1cnn2c(NCc3ccccc3)cc(NCCCCCCCN)nc12` [BS-181], the remaining activity at 10 µM on ROCK 2 (ROCK 2, 10 μM, read-out: Mean Remaining Enzyme Activity (%)) is 76%; at SmMLCK (SmMLCK, 10 μM, read-out: Mean Remaining Enzyme Activity (%)), 35%; on MNK2 (MNK2, 10 μM, read-out: Mean Remaining Enzyme Activity (%)) it was 105%; at RSK2 (RSK2, 10 μM, read-out: Mean Remaining Enzyme Activity (%)) it was 55%; on NEK6 (NEK6, 10 μM, read-out: Mean Remaining Enzyme Activity (%)) it was 85%; on MAPKAP-K2 (MAPKAP-K2, 10 μM, read-out: Mean Remaining Enzyme Activity (%)) it was 88%. The remaining activity at 10 µM on CSK (CSK, 10 μM, read-out: Mean Remaining Enzyme Activity (%)) was found to be 89%.

Consider `C=C[C@H](CO)Nc1cc(NCc2ccccc2)n2ncc(C(C)C)c2n1` [ICEC0065], for which the remaining activity at 10 µM on ROCK 2 (setting [1]) stood at 95%; at SmMLCK (setting [2]) it was 92%; at MNK2 (setting [3]), 83%; on RSK2 (setting [4]), 84%; at NEK6 (setting [5]), 105%; on FGF-R1, 87%. The remaining activity at 10 µM on MAPKAP-K2 (setting [6]) stood at 111%; at CSK (setting [7]) it was 77%.

Consider `CC(C)c1cnn2c(NCc3ccccc3)cc(N[C@@H](CO)[C@H](O)CO)nc12` [ICEC0318, (3S)-3-(7-(Benzylamino)-3-isopropylpyrazolo[1,5-a]pyrimidin-5-ylamino)butane-1,2,4-triol], for which the remaining activity at 10 µM at ROCK 2 (setting [1]) stood at 102%; at SmMLCK (setting [2]), 101%; at MNK2 (setting [3]), 136%; at RSK2 (setting [4]) it was 90%; at NEK6 (setting [5]) it was 87%; on FGF-R1, 86%. Further, the figures for the remaining activity at 10 µM at MAPKAP-K2 (setting [6]) and at CSK (setting [7]) were 111% and 77%, respectively.

The remaining activity is the signal under treatment as a percentage of the control signal.

Source of the values: patent publication US8067424B2, “Selective inhibitors for cyclin-dependent kinases” (Emory University, priority 2007, dated 2011).
